Test results published in PubChem BioAssay AID248 (DTP/NCI, 2004).
Several values for one entry are separate records, joined by “and”; a condition that tells them apart may be missing. Equal values may be shown once. Toxic doses and inconclusive results are not listed. Cut-off read from the data, not from the text of the source: active = T/C of 150% or more; inactive = T/C below 125%.

Test system: L1210 leukemia ip in BDF1 mice, survival T/C
Test: NCI In Vivo Anticancer Drug Screen. Data for tumor model L1210 Leukemia (intraperitoneal) in B6D2F1 (BDF1) mice
Conditions: endpoint: mean survival time, higher = longer survival
How it was run: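 Transplanted-tumor mice were given test agent; controls received vehicle only. Survival readings from the two groups were divided (treated over control).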

[1] = dose: 100.0 mg/kg/injection, schedule: Q04DX003 (ip), vehicle: saline with Tween-80
[2] = dose: 200.0 mg/kg/injection, schedule: Q04DX003 (ip), vehicle: saline with Tween-80
[3] = dose: 400.0 mg/kg/injection, schedule: Q04DX003 (ip), vehicle: saline with Tween-80
[4] = dose: 100.0 mg/kg/injection, schedule: Q01DX001 (ip), vehicle: saline
[5] = dose: 200.0 mg/kg/injection, schedule: Q01DX001 (ip), vehicle: saline
[6] = dose: 400.0 mg/kg/injection, schedule: Q01DX001 (ip), vehicle: saline
[7] = dose: 100.0 mg/kg/injection, schedule: Q01DX009 (ip), vehicle: Klucel (hydroxypropylcellulose) (HPC)
[8] = dose: 200.0 mg/kg/injection, schedule: Q01DX009 (ip), vehicle: Klucel (hydroxypropylcellulose) (HPC)
[9] = dose: 100.0 mg/kg/injection, schedule: Q04DX002 (ip), vehicle: Klucel (hydroxypropylcellulose) (HPC)
[10] = dose: 200.0 mg/kg/injection, schedule: Q04DX002 (ip), vehicle: Klucel (hydroxypropylcellulose) (HPC)
[11] = dose: 400.0 mg/kg/injection, schedule: Q04DX002 (ip), vehicle: Klucel (hydroxypropylcellulose) (HPC)

Measured: T/C

CCCC1C/C(=C\NC(N)=O)C(=O)O1 (stereo not drawn)
inactive: dose: 100.0 mg/kg/injection, schedule: Q01DX005 (ip), vehicle: saline with Tween-80 100 % of control | [1] 104 % of control | dose: 200.0 mg/kg/injection, schedule: Q01DX005 (ip), vehicle: saline with Tween-80 100 % of control | [2] 96 % of control | dose: 400.0 mg/kg/injection, schedule: Q01DX005 (ip), vehicle: saline with Tween-80 112 % of control | [3] 101 % of control

CC(=O)Oc1cc(C)nc(OC(C)=O)c1
inactive: [4] 94 % of control | [5] 100 % of control | [6] 97 % of control

Cc1cc(NCCN(C(C)C)C(C)C)nc(/N=C(\N)Nc2ccc(Cl)c(Cl)c2)n1
inactive: dose: 4.69 mg/kg/injection, schedule: Q01DX009 (ip), vehicle: Klucel (hydroxypropylcellulose) (HPC) 95 % of control | dose: 9.38 mg/kg/injection, schedule: Q01DX009 (ip), vehicle: Klucel (hydroxypropylcellulose) (HPC) 93 % of control | dose: 18.75 mg/kg/injection, schedule: Q01DX009 (ip), vehicle: Klucel (hydroxypropylcellulose) (HPC) 87 % of control | dose: 75.0 mg/kg/injection, schedule: Q01DX001 (ip), vehicle: other 94 % of control | dose: 150.0 mg/kg/injection, schedule: Q01DX001 (ip), vehicle: other 105 % of control

COP(=S)(N/N=C/c1ccccn1)OC
inactive: [1] 106 % of control | [2] 97 % of control | [3] 108 % of control

S=C(Nc1ccccc1)Nc1ccc(Cl)c(Cl)c1
inactive: dose: 12.5 mg/kg/injection, schedule: Q01DX009 (ip), vehicle: saline with Tween-80 95 % of control | dose: 25.0 mg/kg/injection, schedule: Q01DX009 (ip), vehicle: saline with Tween-80 92 % of control and 90 % of control | dose: 50.0 mg/kg/injection, schedule: Q01DX009 (ip), vehicle: saline with Tween-80 105 % of control | dose: 100.0 mg/kg/injection, schedule: Q01DX009 (ip), vehicle: saline with Tween-80 87 % of control and 91 % of control

CCOC(=O)c1cc2c([nH]1)CCCC2
inactive: dose: 100.0 mg/kg/injection, schedule: Q04DX002 (ip), vehicle: saline with Tween-80 100 % of control | dose: 200.0 mg/kg/injection, schedule: Q04DX002 (ip), vehicle: saline with Tween-80 94 % of control | dose: 400.0 mg/kg/injection, schedule: Q04DX002 (ip), vehicle: saline with Tween-80 97 % of control

COc1cc(O)c([N+](=O)[O-])cc1OC
inactive: dose: 50.0 mg/kg/injection, schedule: Q04DX003 (ip), vehicle: DMSO 92 % of control | dose: 100.0 mg/kg/injection, schedule: Q04DX003 (ip), vehicle: DMSO 97 % of control | dose: 200.0 mg/kg/injection, schedule: Q04DX003 (ip), vehicle: DMSO 92 % of control

Cc1cccc2c1sc1c(C)cc(C(=O)CCC(=O)O)cc12
inactive: [4] 94 % of control | [5] 89 % of control | [6] 97 % of control

CC(CN(C)C)CN1c2ccccc2CCc2ccccc21 (stereo not drawn)
inactive: dose: 4.37 mg/kg/injection, schedule: Q01DX009 (ip), vehicle: saline 101 % of control | dose: 8.75 mg/kg/injection, schedule: Q01DX009 (ip), vehicle: saline 101 % of control | dose: 17.5 mg/kg/injection, schedule: Q01DX009 (ip), vehicle: saline 98 % of control | dose: 17.5 mg/kg/injection, schedule: Q04DX003 (ip), vehicle: saline 102 % of control | dose: 35.0 mg/kg/injection, schedule: Q01DX009 (ip), vehicle: saline 107 % of control | dose: 35.0 mg/kg/injection, schedule: Q04DX003 (ip), vehicle: saline 102 % of control | dose: 70.0 mg/kg/injection, schedule: Q04DX003 (ip), vehicle: saline 104 % of control

COC1=C(C)CCC1=O
inactive: dose: 37.5 mg/kg/injection, schedule: Q04DX002 (ip), vehicle: saline 106 % of control | dose: 75.0 mg/kg/injection, schedule: Q04DX002 (ip), vehicle: saline 95 % of control | dose: 150.0 mg/kg/injection, schedule: Q04DX002 (ip), vehicle: saline 98 % of control | dose: 300.0 mg/kg/injection, schedule: Q04DX002 (ip), vehicle: saline 88 % of control

[NH-]CC(=O)O.[NH-]CC(=O)O.[Pt+2]
inactive: dose: 14.0 mg/kg/injection, schedule: Q01DX009 (ip), vehicle: other 89 % of control | dose: 27.9 mg/kg/injection, schedule: Q01DX001 (ip), vehicle: other 93 % of control | dose: 28.0 mg/kg/injection, schedule: Q01DX009 (ip), vehicle: other 100 % of control | dose: 55.8 mg/kg/injection, schedule: Q01DX001 (ip), vehicle: other 89 % of control | dose: 56.0 mg/kg/injection, schedule: Q01DX009 (ip), vehicle: other 96 % of control | dose: 112.0 mg/kg/injection, schedule: Q01DX001 (ip), vehicle: other 97 % of control | dose: 112.0 mg/kg/injection, schedule: Q01DX009 (ip), vehicle: other 113 % of control | dose: 223.0 mg/kg/injection, schedule: Q01DX001 (ip), vehicle: other 109 % of control

CCN(CC)Cc1cc(Nc2ncnc3[nH]c(C)c(C)c23)ccc1O
inactive: dose: 12.5 mg/kg/injection, schedule: Q04DX002 (ip), vehicle: saline with Tween-80 98 % of control | dose: 25.0 mg/kg/injection, schedule: Q04DX002 (ip), vehicle: saline with Tween-80 94 % of control | dose: 50.0 mg/kg/injection, schedule: Q04DX002 (ip), vehicle: saline with Tween-80 88 % of control

CC(C)(C)c1cc(C(=S)N2CCOCC2)cc(C(C)(C)C)c1O
inactive: dose: 100.0 mg/kg/injection, schedule: Q01DX001 (ip), vehicle: Klucel (hydroxypropylcellulose) (HPC) 103 % of control | dose: 200.0 mg/kg/injection, schedule: Q01DX001 (ip), vehicle: Klucel (hydroxypropylcellulose) (HPC) 100 % of control | dose: 400.0 mg/kg/injection, schedule: Q01DX001 (ip), vehicle: Klucel (hydroxypropylcellulose) (HPC) 86 % of control

O=C1CCC(=O)N1c1ccccc1Cl
inactive: dose: 87.5 mg/kg/injection, schedule: Q01DX001 (ip), vehicle: Klucel (hydroxypropylcellulose) (HPC) 102 % of control | dose: 175.0 mg/kg/injection, schedule: Q01DX001 (ip), vehicle: Klucel (hydroxypropylcellulose) (HPC) 106 % of control | dose: 350.0 mg/kg/injection, schedule: Q01DX001 (ip), vehicle: Klucel (hydroxypropylcellulose) (HPC) 98 % of control

N#Cc1cc(C#N)c(Cl)nc1N
inactive: [7] 94 % of control | dose: 100.0 mg/kg/injection, schedule: Q04DX003 (ip), vehicle: Klucel (hydroxypropylcellulose) (HPC) 97 % of control | [8] 95 % of control | dose: 200.0 mg/kg/injection, schedule: Q04DX003 (ip), vehicle: Klucel (hydroxypropylcellulose) (HPC) 95 % of control | dose: 400.0 mg/kg/injection, schedule: Q04DX003 (ip), vehicle: Klucel (hydroxypropylcellulose) (HPC) 106 % of control

C[N+](C)(C)c1ccc(F)c([N+](=O)[O-])c1
inactive: dose: 50.0 mg/kg/injection, schedule: Q01DX005 (ip), vehicle: Klucel (hydroxypropylcellulose) (HPC) 95 % of control | dose: 50.0 mg/kg/injection, schedule: Q01DX009 (ip), vehicle: Klucel (hydroxypropylcellulose) (HPC) 96 % of control | dose: 100.0 mg/kg/injection, schedule: Q01DX005 (ip), vehicle: Klucel (hydroxypropylcellulose) (HPC) 98 % of control | [7] 96 % of control | [9] 90 % of control | dose: 200.0 mg/kg/injection, schedule: Q01DX005 (ip), vehicle: Klucel (hydroxypropylcellulose) (HPC) 103 % of control | [8] 96 % of control | [10] 96 % of control

CCOC(=O)c1ccccc1NC(=O)c1ccccc1
inactive: [9] 100 % of control | [10] 103 % of control | [11] 103 % of control

N#CCC(=O)NCc1ccncc1
inactive: dose: 100.0 mg/kg/injection, schedule: Q01DX001 (ip), vehicle: carboxymethylcellulose (CMC) 95 % of control | dose: 100.0 mg/kg/injection, schedule: Q04DX003 (ip), vehicle: carboxymethylcellulose (CMC) 95 % of control | dose: 200.0 mg/kg/injection, schedule: Q01DX001 (ip), vehicle: carboxymethylcellulose (CMC) 106 % of control | dose: 200.0 mg/kg/injection, schedule: Q04DX003 (ip), vehicle: carboxymethylcellulose (CMC) 96 % of control | dose: 400.0 mg/kg/injection, schedule: Q01DX001 (ip), vehicle: carboxymethylcellulose (CMC) 108 % of control | dose: 400.0 mg/kg/injection, schedule: Q04DX003 (ip), vehicle: carboxymethylcellulose (CMC) 91 % of control

CCCCCCCCCCCCC(=O)N(CC)CC
inactive: [9] 87 % of control | [10] 94 % of control | [11] 94 % of control
